We go through 13 molecules from US12297194B2, “N2-phenylpyrimidine-2,4-diamine compounds, and preparation methods and methods of use thereof” (BRIDGE BIOTHERAPEUTICS, INC., priority 2021, dated 2025).

Common to all, as to format: cell-based, murine
The target in assay [1] is Ba/F3 EGFR L858R/T790M/C797S mutants (Homo sapiens, UniProt P00533, T790M/C797S/L858R, cells depend on it). The experiment in a line: CellTiter-Glo cell viability, Ba/F3 EGFR L858R/T790M/C797S cells. Conditions: 72 hours, read-out: Ba/F3 EGFR mutant cell (IC50, nM) L/T/C. The protocol: (§1) In order to evaluate an inhibitory ability on wild-type Ba/F3 EGFR and Ba/F3 EGFR mutations in Ba/F3 cell lines by the compounds of Formula 1, the experiment was carried out as described below.
(§2) The measurement of activities on Ba/F3 cells harboring wild-type EGFR and EGFR mutants by the compounds of the present invention were determined utilizing the CELLTITER-GLO™ system from Promega, as follows. The CELLTITER-GLO™ assay is a method for measuring the ATP present in cells to determine the cell viability. Ba/F3 EGFR wild-type and Ba/F3 EGFR L858R/C797S (L/C), Ba/F3 EGFR L858R/T790M/C797S (L/T/C), Ba/F3 EGFR Del19/T790M (D/T), Ba/F3 EGFR Del19/C797S (D/C), Ba/F3 EGFR Del19/T790M/C797S (D/T/C) mutant cell lines were maintained in RPMI1640, containing […], 1% penicillin-streptomycin, […] puromycin. Cells were grown in a humidified incubator at 37° C. with […].
(§3) The analysis of an EGFR inhibitory activity by the compounds was carried out in accordance with the analysis reaction recipe below.
(§4) 2500 cells/90 μL were seeded in 96 well cell culture plate, and after 24 hours, treated with the compounds represented by Formula 1 in concentrations of 0, 0.3, 0.9, 2.7, 8.2, 24.7, 74.1, 222.2, 666.7, 2000 (nM). After the reaction of 72 hours, the plate was incubated for 30 minutes at ambient temperature, and then, was further treated with 100 μL of the CELLTITER-GLO™ reagent and was shaken for 10 minutes at ambient temperature. Finally, measurement of the luminescence values were obtained using the SPECTRAMAX™ iD3 (Molecular Devices), and the IC50 values of the compound were analyzed using the GraphPad Prism program (version 9.0.2, GraphPad Software, Inc.).
A general note: In ATP-based viability assays light output follows the ATP content of the culture.

For assay [2], the target named is Ba/F3 EGFR Del19/T790M/C797S mutants (Homo sapiens, UniProt P00533, T790M/C797S, cells depend on it, form not given). In words: CellTiter-Glo cell viability, Ba/F3 EGFR Del19/T790M/C797S cells. The settings on record: 72 hours, read-out: Ba/F3 EGFR mutant cell (IC50, nM) D/T/C. The protocol: as §1, §2, §3, §4
Ba/F3 EGFR Del19/T790M/C797S mutants, sequence (P00533 with tags, fused parts or gaps DEL746-750/T790M/C797S, form open): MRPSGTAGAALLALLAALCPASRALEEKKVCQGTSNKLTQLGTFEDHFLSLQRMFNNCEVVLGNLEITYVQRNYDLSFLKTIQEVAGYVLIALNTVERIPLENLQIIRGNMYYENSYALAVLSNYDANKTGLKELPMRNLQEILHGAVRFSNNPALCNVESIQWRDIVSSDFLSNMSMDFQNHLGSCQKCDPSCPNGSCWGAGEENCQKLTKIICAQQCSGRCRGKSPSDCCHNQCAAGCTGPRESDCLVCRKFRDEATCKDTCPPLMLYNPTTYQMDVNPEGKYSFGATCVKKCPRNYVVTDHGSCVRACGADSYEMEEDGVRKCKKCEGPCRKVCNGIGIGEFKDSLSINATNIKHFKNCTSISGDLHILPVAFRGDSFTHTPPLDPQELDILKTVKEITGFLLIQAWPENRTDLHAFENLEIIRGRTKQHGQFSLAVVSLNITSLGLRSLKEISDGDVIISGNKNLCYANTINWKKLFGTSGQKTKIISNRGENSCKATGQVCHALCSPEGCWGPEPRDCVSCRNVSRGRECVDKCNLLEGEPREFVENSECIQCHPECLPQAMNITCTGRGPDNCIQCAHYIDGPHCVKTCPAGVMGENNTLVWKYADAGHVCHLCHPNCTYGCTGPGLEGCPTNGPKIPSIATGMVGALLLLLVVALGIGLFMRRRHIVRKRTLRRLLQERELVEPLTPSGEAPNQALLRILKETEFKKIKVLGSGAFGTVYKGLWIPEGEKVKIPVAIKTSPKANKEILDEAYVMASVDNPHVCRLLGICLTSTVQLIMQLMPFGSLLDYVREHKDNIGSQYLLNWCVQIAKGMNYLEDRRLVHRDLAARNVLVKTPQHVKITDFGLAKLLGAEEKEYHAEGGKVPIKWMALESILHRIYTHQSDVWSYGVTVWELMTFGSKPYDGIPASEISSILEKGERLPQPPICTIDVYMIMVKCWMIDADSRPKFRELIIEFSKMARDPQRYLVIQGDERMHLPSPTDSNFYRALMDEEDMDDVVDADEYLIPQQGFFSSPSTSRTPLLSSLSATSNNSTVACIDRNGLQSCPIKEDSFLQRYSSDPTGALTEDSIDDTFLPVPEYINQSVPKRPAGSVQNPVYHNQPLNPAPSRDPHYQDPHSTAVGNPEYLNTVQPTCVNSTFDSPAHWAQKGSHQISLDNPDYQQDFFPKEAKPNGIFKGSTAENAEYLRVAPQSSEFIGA
Assay [3] concerns the target Ba/F3 EGFR L858R/C797S mutants (Homo sapiens, UniProt P00533, C797S/L858R, cells depend on it). In words: CellTiter-Glo cell viability, Ba/F3 EGFR L858R/C797S cells. The settings on record: 72 hours, read-out: Ba/F3 EGFR mutant cell (IC50, nM) L/C. How it is done: as §1, §2, §3, §4
The target in assay [4] is Ba/F3 EGFR Del19/C797S mutants (Homo sapiens, UniProt P00533, C797S, cells depend on it, form not given). In words: CellTiter-Glo cell viability, Ba/F3 EGFR Del19/C797S cells. The settings on record: 72 hours, read-out: Ba/F3 EGFR mutant cell (IC50, nM) D/C. How it is done: as §1, §2, §3, §4
Ba/F3 EGFR Del19/C797S mutants, sequence (P00533 with tags, fused parts or gaps DEL746-750/C797S, form open): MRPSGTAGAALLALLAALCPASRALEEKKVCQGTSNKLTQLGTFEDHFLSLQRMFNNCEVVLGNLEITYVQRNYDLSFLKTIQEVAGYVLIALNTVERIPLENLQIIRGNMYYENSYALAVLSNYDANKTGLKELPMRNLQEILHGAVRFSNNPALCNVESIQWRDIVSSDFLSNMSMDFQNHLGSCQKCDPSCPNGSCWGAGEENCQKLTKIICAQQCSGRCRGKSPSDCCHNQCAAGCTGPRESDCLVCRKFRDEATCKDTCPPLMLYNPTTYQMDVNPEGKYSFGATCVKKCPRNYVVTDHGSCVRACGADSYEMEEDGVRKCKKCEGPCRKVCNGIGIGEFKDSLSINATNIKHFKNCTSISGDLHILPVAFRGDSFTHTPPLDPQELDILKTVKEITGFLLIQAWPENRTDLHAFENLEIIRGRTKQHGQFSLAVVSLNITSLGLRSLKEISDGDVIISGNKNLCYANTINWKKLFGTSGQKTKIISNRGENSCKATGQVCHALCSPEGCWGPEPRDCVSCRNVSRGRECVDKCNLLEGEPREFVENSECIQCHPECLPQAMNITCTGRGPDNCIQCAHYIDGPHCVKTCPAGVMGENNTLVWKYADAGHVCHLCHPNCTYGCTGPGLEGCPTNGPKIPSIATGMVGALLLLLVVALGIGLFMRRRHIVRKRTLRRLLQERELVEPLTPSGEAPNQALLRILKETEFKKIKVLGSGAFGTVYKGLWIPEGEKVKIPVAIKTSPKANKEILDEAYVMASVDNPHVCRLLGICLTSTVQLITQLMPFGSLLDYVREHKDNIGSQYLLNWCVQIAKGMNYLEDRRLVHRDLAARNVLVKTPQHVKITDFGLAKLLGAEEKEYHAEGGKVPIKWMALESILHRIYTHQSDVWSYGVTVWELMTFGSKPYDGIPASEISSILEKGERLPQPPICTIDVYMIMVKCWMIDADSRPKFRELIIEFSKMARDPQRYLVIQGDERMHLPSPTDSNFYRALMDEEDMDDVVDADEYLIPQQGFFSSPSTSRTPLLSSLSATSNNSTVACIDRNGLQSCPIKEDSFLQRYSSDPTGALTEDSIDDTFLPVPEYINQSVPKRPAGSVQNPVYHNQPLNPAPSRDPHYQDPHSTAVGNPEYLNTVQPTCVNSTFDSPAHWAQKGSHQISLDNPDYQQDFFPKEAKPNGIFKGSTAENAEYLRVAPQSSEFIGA
In assay [5] the target is Ba/F3 EGFR Wild-type (Homo sapiens, UniProt P00533). In words: CellTiter-Glo cell viability, Ba/F3 EGFR wild-type cells. Conditions: 72 hours, read-out: Ba/F3 EGFR mutant cell (IC50, nM) WT. The protocol:
as §1, §2, §3, §4

Ba/F3 EGFR Wild-type, sequence (P00533 whole entry, change not shown): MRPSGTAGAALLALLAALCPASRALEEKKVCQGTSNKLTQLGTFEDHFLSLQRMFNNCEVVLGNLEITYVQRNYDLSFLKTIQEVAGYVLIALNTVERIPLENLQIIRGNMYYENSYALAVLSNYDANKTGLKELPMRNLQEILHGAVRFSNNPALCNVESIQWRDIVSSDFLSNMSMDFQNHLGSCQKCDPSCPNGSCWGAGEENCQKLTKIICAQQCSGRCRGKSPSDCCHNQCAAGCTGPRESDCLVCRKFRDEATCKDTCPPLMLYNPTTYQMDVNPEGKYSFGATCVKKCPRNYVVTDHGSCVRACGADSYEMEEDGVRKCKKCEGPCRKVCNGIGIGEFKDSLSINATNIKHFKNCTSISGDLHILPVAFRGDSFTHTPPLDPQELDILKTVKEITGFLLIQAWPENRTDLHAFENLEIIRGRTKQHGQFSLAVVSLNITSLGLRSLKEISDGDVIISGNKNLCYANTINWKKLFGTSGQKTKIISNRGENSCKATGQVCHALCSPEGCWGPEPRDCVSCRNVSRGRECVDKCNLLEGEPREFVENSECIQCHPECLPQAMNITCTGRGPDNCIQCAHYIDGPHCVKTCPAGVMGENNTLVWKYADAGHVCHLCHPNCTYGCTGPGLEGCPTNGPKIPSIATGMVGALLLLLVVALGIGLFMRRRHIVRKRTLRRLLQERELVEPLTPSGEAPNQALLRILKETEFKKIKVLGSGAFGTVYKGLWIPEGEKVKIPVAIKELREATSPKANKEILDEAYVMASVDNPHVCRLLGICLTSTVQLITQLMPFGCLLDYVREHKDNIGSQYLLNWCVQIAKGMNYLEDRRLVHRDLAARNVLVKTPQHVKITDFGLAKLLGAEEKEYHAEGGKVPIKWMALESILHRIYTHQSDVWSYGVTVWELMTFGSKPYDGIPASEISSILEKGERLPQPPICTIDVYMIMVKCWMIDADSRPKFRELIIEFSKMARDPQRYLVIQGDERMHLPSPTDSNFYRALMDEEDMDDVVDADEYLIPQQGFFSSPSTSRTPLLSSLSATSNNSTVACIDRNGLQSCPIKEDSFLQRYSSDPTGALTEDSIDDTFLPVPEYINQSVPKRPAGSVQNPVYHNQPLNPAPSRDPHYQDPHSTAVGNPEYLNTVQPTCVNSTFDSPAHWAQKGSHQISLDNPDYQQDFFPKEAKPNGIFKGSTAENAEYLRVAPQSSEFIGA
Ba/F3 EGFR L858R/C797S mutants, sequence (P00533 whole entry C797S/L858R): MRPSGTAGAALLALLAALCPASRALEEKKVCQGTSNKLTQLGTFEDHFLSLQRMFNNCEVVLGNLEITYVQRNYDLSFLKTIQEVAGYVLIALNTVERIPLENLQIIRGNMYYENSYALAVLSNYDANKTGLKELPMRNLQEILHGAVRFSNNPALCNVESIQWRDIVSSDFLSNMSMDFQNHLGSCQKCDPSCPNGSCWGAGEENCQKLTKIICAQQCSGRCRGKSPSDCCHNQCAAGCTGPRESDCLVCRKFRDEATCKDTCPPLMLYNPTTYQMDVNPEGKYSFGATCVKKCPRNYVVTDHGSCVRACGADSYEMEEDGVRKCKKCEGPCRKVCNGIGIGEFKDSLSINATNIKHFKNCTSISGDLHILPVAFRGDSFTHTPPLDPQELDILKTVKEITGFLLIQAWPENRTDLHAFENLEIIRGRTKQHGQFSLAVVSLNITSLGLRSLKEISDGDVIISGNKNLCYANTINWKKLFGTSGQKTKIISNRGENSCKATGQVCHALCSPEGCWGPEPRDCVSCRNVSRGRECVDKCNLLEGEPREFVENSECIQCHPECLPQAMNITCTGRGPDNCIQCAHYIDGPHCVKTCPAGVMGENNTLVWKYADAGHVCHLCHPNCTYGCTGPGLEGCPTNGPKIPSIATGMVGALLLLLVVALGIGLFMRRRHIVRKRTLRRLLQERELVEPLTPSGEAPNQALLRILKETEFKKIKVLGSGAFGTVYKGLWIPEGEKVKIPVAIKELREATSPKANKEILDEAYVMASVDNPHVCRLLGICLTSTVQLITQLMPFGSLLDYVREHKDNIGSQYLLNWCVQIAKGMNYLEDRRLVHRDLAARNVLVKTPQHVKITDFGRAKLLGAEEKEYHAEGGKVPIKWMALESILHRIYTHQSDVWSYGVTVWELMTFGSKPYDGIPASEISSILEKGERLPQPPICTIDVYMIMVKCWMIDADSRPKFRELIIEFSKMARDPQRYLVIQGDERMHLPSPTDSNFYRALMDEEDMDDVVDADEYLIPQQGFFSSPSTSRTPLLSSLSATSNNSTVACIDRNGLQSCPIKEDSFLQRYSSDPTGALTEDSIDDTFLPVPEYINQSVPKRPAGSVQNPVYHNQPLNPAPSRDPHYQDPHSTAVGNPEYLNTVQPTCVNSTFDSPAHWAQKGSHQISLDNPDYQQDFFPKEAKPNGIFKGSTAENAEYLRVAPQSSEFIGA

With `COc1cc(N2CCC(N3CCN(C)CC3)CC2)ccc1Nc1ncc(Cl)c(Nc2ccc3nccnc3c2NS(C)(=O)=O)n1` [Example A3, N-(6-((5-chloro-2-((2-methoxy-4-(4-(4-methylpiperazin-1-yl)piperidin-1-yl)phenyl)amino)pyrimidin-4-yl)amino)quinoxalin-5-yl)methanesulfonamide], the GI50 in assay [1] was 97.6 nM; in assay [2] it was 48 nM.

Regarding `COc1cc(N2CCC(N3CCN(C)CC3)CC2)c(C2CC2)cc1Nc1ncc(Cl)c(Nc2ccc3nccnc3c2NS(C)(=O)=O)n1` [Example A5, N-(6-((5-chloro-2-((5-cyclopropyl-2-methoxy-4-(4-(4-methylpiperazin-1-yl)piperidin-1-yl)phenyl)amino)pyrimidin-4-yl)amino)quinoxalin-5-yl)methanesulfonamide], the GI50 was 244 nM in assay [3]; 76 nM in assay [4]; 938 nM in assay [5]; 69 nM in assay [1]; 23 nM in assay [2].

Consider `COc1cc(N2CCC(N3CCN(C)CC3)CC2)c(C(F)(F)F)cc1Nc1ncc(Cl)c(Nc2ccc3nccnc3c2NS(C)(=O)=O)n1` [Example A7, N-(6-((5-chloro-2-((2-methoxy-4-(4-(4-methylpiperazin-1-yl)piperidin-1-yl)-5-(trifluoromethyl)phenyl)amino)pyrimidin-4-yl)amino)quinoxalin-5-yl)methanesulfonamide], for which the GI50 was 246 nM in assay [3]; 96 nM in assay [4]; 602 nM in assay [5]; 169 nM in assay [1]; 36 nM in assay [2].

`CCc1cc(Nc2ncc(Br)c(Nc3ccc4nccnc4c3NS(C)(=O)=O)n2)c(OC)cc1N1CCC(N2CCN(C)CC2)CC1` [Example A8, N-(6-((5-bromo-2-((5-ethyl-2-methoxy-4-(4-(4-methylpiperazin-1-yl)piperidin-1-yl)phenyl)amino)pyrimidin-4-yl)amino)quinoxalin-5-yl)methanesulfonamide]: the GI50 in assay [3] worked out at 147 nM; in assay [4], 38 nM; in assay [5] it was 919 nM; in assay [1] it was 18 nM; in assay [2] it was 6 nM.

For the molecule `CCc1cc(Nc2ncc(F)c(Nc3ccc4nccnc4c3NS(C)(=O)=O)n2)c(OC)cc1N1CCC(N2CCN(C)CC2)CC1` [Example A9, N-(6-((2-((5-ethyl-2-methoxy-4-(4-(4-methylpiperazin-1-yl)piperidin-1-yl)phenyl)amino)-5-fluoropyrimidin-4-yl)amino)quinoxalin-5-yl)methanesulfonamide], the GI50 was 106 nM in assay [3]; 15 nM in assay [4]; 524 nM in assay [5]; 80 nM in assay [1]; 62 nM in assay [2].

Consider `CNc1cc(N2CCC(N3CCN(C)CC3)CC2)c(C)cc1Nc1ncc(Cl)c(Nc2ccc3nccnc3c2NS(C)(=O)=O)n1` [Example A13, N-(6-((5-chloro-2-((5-methyl-2-(methylamino)-4-(4-(4-methylpiperazin-1-yl)piperidin-1-yl)phenyl)amino)pyrimidin-4-yl)amino)quinoxalin-5-yl)methanesulfonamide], for which the GI50 in assay [3] is 646 nM; in assay [4], 265 nM; in assay [5], greater than 2000 nM; in assay [1], 338 nM; in assay [2], 109 nM.

`COc1cc(N2CCC(N3CCN(C)CC3)CC2)c(C)cc1Nc1ncc(C(F)(F)F)c(Nc2ccc3nccnc3c2NS(C)(=O)=O)n1` [Example A20, N-(6-((2-((2-methoxy-5-methyl-4-(4-(4-methylpiperazin-1-yl)piperidin-1-yl)phenyl)amino)-5-(trifluoromethyl)pyrimidin-4-yl)amino)quinoxalin-5-yl)methane sulfonamide]: the GI50 in assay [3] was greater than 2000 nM; in assay [4], greater than 2000 nM; in assay [5], greater than 2000 nM; in assay [1], greater than 2000 nM; in assay [2] it was 1590 nM.

As for `COc1cc(N2CCC(N3CCN(C)CC3)CC2)c(C)cc1Nc1ncc(F)c(Nc2ccc3nccnc3c2NS(C)(=O)=O)n1` [Example A22, N-(6-((5-fluoro-2-((2-methoxy-5-methyl-4-(4-(4-methylpiperazin-1-yl)piperidin-1-yl)phenyl)amino)pyrimidin-4-yl)amino)quinoxalin-5-yl)methanesulfonamide], the GI50 in assay [3] was determined as 189 nM; in assay [4], 73 nM; in assay [5], 521 nM; in assay [1] it was 369 nM; in assay [2] it was 189 nM.

Consider `COc1cc(N2CCC(N3CCN(C)CC3)CC2)c(C)cc1Nc1ncc(Cl)c(Nc2ccc3nccnc3c2NS(=O)(=O)C2CC2)n1` [Example A26, N-(6-((5-chloro-2-((2-methoxy-5-methyl-4-(4-(4-methylpiperazin-1-yl)piperidin-1-yl)phenyl)amino)pyrimidin-4-yl)amino)quinoxalin-5-yl)cyclopropanesulfonamide], for which the GI50 in assay [3] amounted to 163 nM; in assay [4], 72 nM; in assay [5], 1280 nM; in assay [1], 107 nM; in assay [2], 79 nM.

On to `CCc1cc(Nc2ncc(Br)c(Nc3ccc4nccnc4c3NS(C)(=O)=O)n2)c(OC)cc1N1CCC(N(C)C)CC1` [Example B2, N-(6-((5-bromo-2-((4-(4-(dimethylamino)piperidin-1-yl)-5-ethyl-2-methoxyphenyl)amino)pyrimidin-4-yl)amino)quinoxalin-5-yl)methanesulfonamide], for which the GI50 was found to be 195 nM in assay [3]; 28 nM in assay [4]; 2100 nM in assay [5]; 13 nM in assay [1]; 7 nM in assay [2].

Take `COc1cc(N2CCC(N(C)C)CC2)ccc1Nc1ncc(Br)c(Nc2ccc3nccnc3c2NS(C)(=O)=O)n1` [Example B3, N-(6-((5-bromo-2-((4-(4-(dimethylamino)piperidin-1-yl)-2-methoxyphenyl)amino)pyrimidin-4-yl)amino)quinoxalin-5-yl)methanesulfonamide]: the GI50 was 325 nM in assay [3]; 147 nM in assay [4]; 725 nM in assay [5]; 86 nM in assay [1]; 30 nM in assay [2].

Take `COc1cc(N2CCC(N(C)C)CC2)c(C)cc1Nc1ncc(Cl)c(Nc2ccc3nccnc3c2NS(C)(=O)=O)n1` [Example B4, N-(6-((5-chloro-2-((4-(4-(dimethylamino)piperidin-1-yl)-2-methoxy-5-methylphenyl)amino)pyrimidin-4-yl)amino)quinoxalin-5-yl)methanesulfonamide]: the GI50 was determined as 14 nM in assay [3]; 9 nM in assay [4]; 10 nM in assay [5]; 9 nM in assay [1]; 4 nM in assay [2].

Consider `CC(C)Oc1cc(C2CCNCC2)ccc1Nc1ncc(Cl)c(Nc2ccc3nccnc3c2NS(C)(=O)=O)n1` [Example B22, N-(6-((5-chloro-2-((2-isopropoxy-4-(piperidin-4-yl)phenyl)amino)pyrimidin-4-yl)amino)103quinoxaline-5-yl)methanesulfonamide], for which the GI50 in assay [3], in assay [5], in assay [1] and in assay [2] was greater than 2000 nM throughout.
